Results on 64 molecules are retold here after a melting point compilation (Tetko et al.; mined from patent text by program, amines drawn as free bases though some values may be those of a salt).

With `CCCN(CCC)C(=O)n1cnc(S(=O)(=O)CCC)n1`, the melting point (usually the temperature of the solid-liquid transition) was 79 to 80 °C.
`COc1cccc2c1CCN(c1nc(C)[nH]c(=O)c1[N+](=O)[O-])CC2`: the melting point is > 200 °C.
The molecule `C=CCCCOc1ccc2c(=O)cc(-c3ccccc3)oc2c1` gave a melting point of 104 to 106 °C.
Molecule `COC(=O)c1ccccc1S(=O)(=O)NC(=O)Nc1nc(CSc2ccccn2)cc(OC)n1` displayed a melting point of 175 to 181 °C.
In the case of `COc1cc2nc(CN(C)C)[nH]c(=O)c2cc1OC`, the melting point lay in the range of 210 to 212 °C.
The molecule `CC(C)(O)CCCCc1ccc(C=Cc2ccc(CO)c(CO)c2)cc1` registered a melting point of 102 to 104 °C.
The same measure for `CC(N)C(=O)Nc1cc(OCC(F)(F)F)ccc1-c1cccnc1` (centres undefined): 135 to 140 °C.
As to `CN1CCN(c2c(-c3ccccc3)sc3ccccc23)CC1`, the melting point fell in the range of 118 to 120 °C.
The same measure for `CCOc1nn(-c2ccc(C(F)(F)F)cn2)cc1CCOc1cccc(OC(C)(C)C(=O)O)c1`: 89 to 90 °C; for `CC(C)(C)SC(=O)C=CC1C(C(=O)OCc2ccc(F)c(Oc3ccccc3)c2)C1(C)C` (centres undefined): 82 °C.
The same measure for `CCCn1c(=O)c2c(nc(/C=C/c3ccc(OC)c4ccccc34)n2C)n(CCC)c1=O`: 213 to 214 °C; for `COCC#Cc1cc(C(=O)OC)c(N)cc1C(F)(F)F`: 107 to 111 °C.
Turning to `Cc1cc(F)ccc1-c1cc(N2CCSCC2)ncc1N(C)C(=O)C(C)(C)c1cc(C(F)(F)F)cc(C(F)(F)F)c1`, the melting point is 168 to 170 °C.
`CC1CC2=CC(=O)C=CC2(C)C2C(=O)CC3(C)C(=O)CCC3C12` (centres undefined): the melting point was 257 to 259 °C.
`NC(=O)N1CCC(c2nn(-c3ccc(C(F)(F)F)cc3)c3cc(F)ccc23)CC1` returned a melting point of 148 to 150 °C.
For `CC1(C)C(=O)Oc2cc([N+](=O)[O-])c3ccc(Cn4cncn4)cc3c21`, the melting point fell in the range of 150 to 152 °C.
`CS(=O)(=O)c1ccc(-c2oc(CC(=O)O)nc2-c2ccc(F)cc2)cc1` registered a melting point of 118 to 120 °C.
As for `CN(C)CCNC1=CC(=O)c2nc(-c3ccc(F)cc3)sc2C1=O`, the melting point fell in the range of 246 to 247 °C.
Regarding `CCOC(=O)C(C)(C)S(=O)(=O)c1ccc(OC)cc1`, the melting point stood at 196 °C.
Molecule `CN1Cc2cscc2Nc2cc(Cl)c(Cl)cc21` had a melting point of 92 to 93 °C.
The same measure for `Cc1cc(O)nn1C(=O)Nc1ccccc1`: 232 to 234 °C.
The molecule `CCCCN1CCOC2c3cccc4[nH]cc(c34)CC21` (centres undefined) returned a melting point of 134 to 140 °C.
Consider `NC(=O)c1cccc(OCCOC2CCNCC2)c1`, for which the melting point lay within 144 to 146 °C.
Molecule `CCCCCCCCCCOc1cc(O)cc(C(=O)OC)c1` had a melting point of 92 to 94 °C.
The same measure for `O=S(=O)(c1ccccc1)N1CCC(C(=NCCc2ccccc2)c2ccc(F)cc2)CC1`: 123 to 126 °C.
The same measure for `O=C1c2ccccc2C(=O)N1C(Cc1ccccc1)CP(=O)(O)O` (centres undefined): 127 to 130 °C.
`COc1c(OC(C)=O)ccc(C=O)c1[N+](=O)[O-]`: the melting point was 84 to 86 °C.
`CC(C)On1c(-c2ccccc2)nc2c(N)nc3ccccc3c21` yielded a melting point of 188 to 191 °C.
Take `Cc1cc2nc(C(=O)O)c(=O)[nH]c2cc1C`: the melting point lay within 276 to 285 °C.
In turn, `O=C(Nc1ccc2ccc(N3CCCC3)nc2n1)c1ccccc1` displayed a melting point of 130 °C.
With `CC(C)(C)c1cc(CCc2ccccc2NC(=O)NCc2ccccc2)cc(C(C)(C)C)c1O`, the melting point was 181 to 183 °C.
As for `CCON=C(CC)C1=C(OC(=O)c2ccc(Cl)cc2)CC(C)(C)CC1=O`, the melting point lay in the range of 60 to 62 °C.
Consider `COC(=O)NC1CCc2sc(Cl)cc2C1` (centres undefined), for which the melting point was 120 to 121 °C.
Then `N#CN(CCN1CCC(C(=O)c2ccc(F)cc2)CC1)C(=N)NCCN1CCC(C(=O)c2ccc(F)cc2)CC1`, with 152 to 156 °C; and `CCCC(=O)NCCc1ccc(S(=O)(=O)N2CCN(C3CCCCC3)C2=N)s1`, with 121 to 125 °C.
In turn, `COC(=O)C(=Cc1ccc(OCc2ccccc2)cc1)C(=O)OC` returned a melting point of 134 to 135 °C.
Then `O=C(O)C(O)Cc1ccc(OCCN2CCSc3ccccc32)cc1` (centres undefined), with 74 to 76 °C; and `COc1ccccc1N(CN1CCOC1=O)C(=O)CCl`, with 109 to 110 °C.
`COc1cc(OC)nc(Cc2ccccc2NS(=O)(=O)C(F)(F)F)n1` yielded a melting point of 99 to 100 °C.
Consider `CSc1nn2c(N)cc(C3CC3)nc2c1S(=O)(=O)c1ccccc1`, for which the melting point is > 230 °C.
In the case of `CC[C@H](C)[C@H](NC(=O)[C@H](Cc1ccc(O)cc1)NC(=O)OC(C)(C)C)C(=O)NCCCBr`, the melting point was in the range of 96 to 100 °C.
In the case of `N=C(N)c1ccc(N2CCN(C3CCC(CCC(=O)O)CC3)C2=O)cc1` (centres undefined), the melting point was > 200 °C.
`Oc1ccccc1C=NC1=NN(c2cccc(C(F)(F)F)c2)CC1` showed a melting point of 156 °C.
In the case of `Cc1c2cc(C(=O)O)[nH]c2cc2c1sc1ccccc12`, the melting point fell in the range of 271 to 272 °C.
As for `CCN(CC)C(Cc1cccs1)=Nc1ccc2sc3ccccc3c2c1`, the melting point is 114 to 115 °C.
As to `COc1ccc(-c2nc3c(O)cccc3s2)cc1`, the melting point lay within 128 to 130 °C.
Consider `Cn1nnnc1-c1cn(C)c2cc(N3CCCCC3)ccc2c1=O`, for which the melting point was in the range of 180 to 183 °C.
The molecule `Cc1nnc2n1-c1ccc(Cl)cc1C(=S)NC2` displayed a melting point of 298 to 303 °C.
Turning to `CC(C)(CO)CNC(=O)c1ccc2c(c1)C(=NNc1ccc(S(N)(=O)=O)cc1)C(=O)N2`, the melting point is > 230 °C.
`CCC1(Cl)NN=C2C=Nc3cc(Cl)c(Cl)cc3N21` (centres undefined) showed a melting point of 198 to 201 °C.
Regarding `CC(=O)OC1CCC(n2cnc3cc(Cl)c(Cl)cc32)C1OC(C)=O` (centres undefined), the melting point lay in the range of 95 to 97 °C.
The molecule `Fc1ccc(-c2cc(C(F)(F)F)n3ncc(-c4ccncc4)c3n2)cc1Cl` had a melting point of 265 °C.
`CC1(C)CCC(C)(C)c2cc(CC#Cc3ccc(C(=O)Nc4ccc(O)cc4)cc3)ccc21`: the melting point is 159 to 160 °C.
As to `COc1ccc(-c2[nH]nc3c2C(=O)c2c(NC(=O)NNC(=O)c4ccncc4)cccc2-3)cc1`, the melting point is 248 °C.
Regarding `COc1cc(C2=C(c3c[nH]c4ccccc34)C(=O)NC2=O)cc(OC)c1OC`, the melting point came to 227 °C.
`O=Cc1ccc(OCc2csc(-c3ccccc3)n2)cc1` showed a melting point of 86 to 90 °C.
`CCSC=C1C(=O)OC(C)(C)OC1=O` came in with a melting point of 52 to 54 °C.
`Brc1ccc(Cn2cncn2)cc1` registered a melting point of 77 to 79 °C.
The same measure for `O=C(CCC(C(=O)O)N1C(=O)c2ccccc2C1=O)OCc1ccccc1` (centres undefined): 96 to 98 °C; for `CCCc1c(OCCCC(=O)NCCc2cccnc2)ccc(C(C)=O)c1O`: 94 to 96 °C.
In the case of `CCc1[nH]n(C2CCCC2)c2nc(-n3ccnc3)nc(=O)c1-2`, the melting point fell in the range of 228 to 230 °C.
For `CN(CCOc1cccc2ccn(C(=O)OC(C)(C)C)c12)C(=O)OC(C)(C)C`, the melting point lay in the range of 74 to 76 °C.
On to `COc1cc(Oc2ccc(S(C)(=O)=O)nc2)cc2cc(C3=NCC(CC(=O)NC4CC4)S3)[nH]c12` (centres undefined), for which the melting point lay in the range of 248 to 249 °C.
The same measure for `CCOC(=O)c1nnc2ccc(NC(=O)OCC(Cl)(Cl)Cl)cc2c1O`: 251 to 253 °C.
